In patent US11352340B2, “Pyridine and pyridimine compounds as PI3K-gamma inhibitors” (Incyte Corporation, priority 2016, dated 2022) one finds IC50 data, which are given here for 22 compounds.

Test [1] addresses PI3Kγ (p110γ) Recombinant Human Protein (Homo sapiens (Human), UniProt P48736). Kind of test: PI3K-γ Scintillation Proximity Assay. It counts as biochemical. Conditions: read-out: PI3K-gamma SPA IC50. An excerpt: Example B. PI3K-γ Scintillation Proximity Assay
[γ-^33P]ATP (10 mCi/mL) and Wheat Germ Agglutinin (WGA) YSi SPA Scintillation Beads was purchased from Perkin-Elmer (Waltham, Mass.). Lipid kinase substrate, D-myo-Phosphatidylinositol 4,5-bisphosphate (PtdIns(4,5)P2)D (+)-sn-1,2-di-O-octanoylglyceryl, 3-O-phospho linked (PIP2), CAS 204858-53-7, was purchased from Echelon Biosciences (Salt Lake City, Utah). PI3Kγ (p110γ) Recombinant Human Protein was purchased from Life technology (Grand Island, N.Y.). ATP, MgCl2, DTT, EDTA, MOPS and CHAPS were purchased from Sigma-Aldrich (St. Louis, Mo.).
(§1) The kinase reaction was conducted in polystyrene 384-well Greiner Bio-one white plate from Thermo Fisher Scientific in a final volume of 25 μL. Inhibitors were first diluted serially in DMSO and added to the plate wells before the addition of other reaction components. The final concentration of DMSO in the assay was 2%. The PI3Kγ assay was carried out at room temperature in 20 mM MOPS, pH 6.7, 10 mM MgCl2, 5 mM DTT and CHAPS 0.03%. Reactions were initiated by the addition of ATP, the final reaction mixture consisted of 20 μM PIP2, 2 μM ATP, 0.5 μCi [γ-^33P] ATP, 13 nM PI3Kγ. Reactions were incubated for 120 min and terminated by the addition of 40 μL SPA beads suspended in quench buffer: 163 mM potassium phosphate pH 7.8, 20% glycerol, 25 mM EDTA. The final concentration of SPA beads is 1.0 mg/mL. After the plate sealing, plates were shaken overnight at room temperature and centrifuged at 1500 rpm for 10 min, the radioactivity of the product was determined by scintillation counting on Topcount (Perkin-Elmer). IC50 determination was performed by fitting the curve of percent of the solvent control activity versus the log of the inhibitor concentration using the GraphPad Prism 6.0 software.
For orientation: SPA uses beads or plates that emit light when radiolabelled molecules are held near them.

Test [2] has as its target PI3Kδ (p110δ/p85α) Recombinant Human Protein (Homo sapiens (Human), UniProt O00329). Kind of test: PI3Kδ Scintillation Proximity Assay. Conditions: read-out: PI3K-delta SPA IC50. Type of test: biochemical.
Text: Example C. PI3Kδ Scintillation Proximity Assay
[γ-^33P]ATP (10 mCi/mL) and Wheat Germ Agglutinin (WGA) YSi SPA Scintillation Beads was purchased from Perkin-Elmer (Waltham, Mass.). Lipid kinase substrate, D-myo-Phosphatidylinositol 4,5-bisphosphate (PtdIns(4,5)P2)D (+)-sn-1,2-di-O-octanoylglyceryl, 3-O-phospho linked (PIP2), CAS 204858-53-7, was purchased from Echelon Biosciences (Salt Lake City, Utah). PI3Kδ (p110δ/p85α) Recombinant Human Protein was purchased from Eurofins (St Charles, Mo.). ATP, MgCl2, DTT, EDTA, MOPS and CHAPS were purchased from Sigma-Aldrich (St. Louis, Mo.).
as §1, with “PI3Kδ” for “PI3Kγ”, “3.4” for “13”, “PI3Kδ.” for “PI3Kγ.”

Structures can show the parent of a compound that is named as a salt.

Chain of PI3Kγ (p110γ) Recombinant Human Protein (P48736 whole entry): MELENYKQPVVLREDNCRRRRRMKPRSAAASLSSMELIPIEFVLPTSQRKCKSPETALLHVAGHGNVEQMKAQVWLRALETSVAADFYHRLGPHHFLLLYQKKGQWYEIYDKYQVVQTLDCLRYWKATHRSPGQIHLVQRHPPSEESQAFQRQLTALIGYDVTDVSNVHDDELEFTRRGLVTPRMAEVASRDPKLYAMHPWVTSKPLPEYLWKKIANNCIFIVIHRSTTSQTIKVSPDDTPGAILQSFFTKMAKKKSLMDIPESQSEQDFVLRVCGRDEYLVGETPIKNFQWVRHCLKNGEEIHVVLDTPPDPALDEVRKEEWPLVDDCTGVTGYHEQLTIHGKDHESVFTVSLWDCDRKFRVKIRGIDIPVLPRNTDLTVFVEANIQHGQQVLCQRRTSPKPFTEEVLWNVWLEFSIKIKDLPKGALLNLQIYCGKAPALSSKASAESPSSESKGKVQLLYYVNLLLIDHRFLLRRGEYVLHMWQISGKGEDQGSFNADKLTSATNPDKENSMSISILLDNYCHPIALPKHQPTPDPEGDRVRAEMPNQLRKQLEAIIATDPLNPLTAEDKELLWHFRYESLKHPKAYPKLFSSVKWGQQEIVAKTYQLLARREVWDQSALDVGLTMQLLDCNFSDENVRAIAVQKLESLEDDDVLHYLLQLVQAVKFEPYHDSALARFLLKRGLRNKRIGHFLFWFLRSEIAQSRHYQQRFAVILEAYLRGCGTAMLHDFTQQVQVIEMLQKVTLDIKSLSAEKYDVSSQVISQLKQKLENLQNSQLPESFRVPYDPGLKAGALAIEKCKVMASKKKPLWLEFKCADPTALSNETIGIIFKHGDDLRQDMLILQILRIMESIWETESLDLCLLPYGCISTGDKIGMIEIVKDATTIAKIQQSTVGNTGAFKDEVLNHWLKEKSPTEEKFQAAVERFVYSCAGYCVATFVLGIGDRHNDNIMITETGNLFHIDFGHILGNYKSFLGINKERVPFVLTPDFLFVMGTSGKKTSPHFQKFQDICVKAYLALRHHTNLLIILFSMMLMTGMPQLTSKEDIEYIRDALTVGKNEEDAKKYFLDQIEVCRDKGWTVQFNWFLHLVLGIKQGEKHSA
Chain of PI3Kδ (p110δ/p85α) Recombinant Human Protein (O00329 whole entry): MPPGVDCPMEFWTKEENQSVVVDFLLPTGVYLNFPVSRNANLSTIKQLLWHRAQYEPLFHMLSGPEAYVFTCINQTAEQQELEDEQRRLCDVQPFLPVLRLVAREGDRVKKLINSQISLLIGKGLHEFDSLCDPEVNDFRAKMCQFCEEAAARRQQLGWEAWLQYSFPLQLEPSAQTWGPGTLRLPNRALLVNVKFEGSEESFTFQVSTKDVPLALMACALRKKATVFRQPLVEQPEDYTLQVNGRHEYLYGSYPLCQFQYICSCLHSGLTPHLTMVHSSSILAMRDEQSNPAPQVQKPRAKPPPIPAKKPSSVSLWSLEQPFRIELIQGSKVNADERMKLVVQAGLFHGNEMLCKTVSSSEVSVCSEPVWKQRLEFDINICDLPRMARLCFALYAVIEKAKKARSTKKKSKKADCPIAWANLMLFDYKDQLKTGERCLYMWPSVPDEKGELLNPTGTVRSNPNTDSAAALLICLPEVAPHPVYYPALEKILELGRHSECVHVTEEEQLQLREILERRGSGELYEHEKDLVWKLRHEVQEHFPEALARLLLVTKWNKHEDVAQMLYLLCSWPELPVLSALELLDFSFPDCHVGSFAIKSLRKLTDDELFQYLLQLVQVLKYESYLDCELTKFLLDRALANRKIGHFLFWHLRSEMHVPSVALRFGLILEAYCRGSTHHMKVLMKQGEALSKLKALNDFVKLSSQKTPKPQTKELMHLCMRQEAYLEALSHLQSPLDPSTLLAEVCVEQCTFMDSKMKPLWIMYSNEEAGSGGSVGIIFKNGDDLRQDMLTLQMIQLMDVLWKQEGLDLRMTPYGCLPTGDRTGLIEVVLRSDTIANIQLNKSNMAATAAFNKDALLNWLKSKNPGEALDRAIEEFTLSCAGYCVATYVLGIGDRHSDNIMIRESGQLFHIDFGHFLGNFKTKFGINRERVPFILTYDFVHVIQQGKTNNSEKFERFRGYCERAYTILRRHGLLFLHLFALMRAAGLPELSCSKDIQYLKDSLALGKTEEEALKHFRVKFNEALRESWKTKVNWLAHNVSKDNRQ
Chain of PI3Kδ (p110δ/p85α) Recombinant Human Protein (P27986 whole entry partner): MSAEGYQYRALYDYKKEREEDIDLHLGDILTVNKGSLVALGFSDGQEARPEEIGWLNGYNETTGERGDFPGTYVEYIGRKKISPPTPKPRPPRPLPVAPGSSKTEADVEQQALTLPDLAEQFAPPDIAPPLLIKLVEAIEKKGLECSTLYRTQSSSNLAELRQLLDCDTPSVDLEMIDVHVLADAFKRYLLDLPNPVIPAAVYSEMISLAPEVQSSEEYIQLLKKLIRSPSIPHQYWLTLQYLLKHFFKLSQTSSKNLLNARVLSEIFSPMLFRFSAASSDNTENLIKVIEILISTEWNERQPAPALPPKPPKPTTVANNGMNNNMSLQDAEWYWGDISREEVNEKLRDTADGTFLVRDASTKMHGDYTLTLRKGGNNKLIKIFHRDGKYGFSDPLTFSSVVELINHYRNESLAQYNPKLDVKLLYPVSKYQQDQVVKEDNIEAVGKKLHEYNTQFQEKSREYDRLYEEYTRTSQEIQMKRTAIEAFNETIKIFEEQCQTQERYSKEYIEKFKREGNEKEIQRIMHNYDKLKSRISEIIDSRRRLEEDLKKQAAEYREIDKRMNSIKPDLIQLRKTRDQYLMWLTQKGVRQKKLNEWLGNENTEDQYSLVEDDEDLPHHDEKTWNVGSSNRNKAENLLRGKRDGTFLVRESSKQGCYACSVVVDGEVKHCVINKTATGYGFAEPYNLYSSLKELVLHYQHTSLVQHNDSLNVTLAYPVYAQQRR

As to `COCCCNCc1nc(-c2cc(-c3cncc(N4CCOCC4)c3)ccn2)[nH]c1C` [Example 291, 3-Methoxy-N-{[5-methyl-2-(5-morpholin-4-yl-3,4′-bipyridin-2′-yl)-1H-imidazol-4-yl]methyl}propan-1-amine], the IC50 is above 500 nM in test [1] and at most 50 nM in test [2].
The matching figures for `Cc1nc(-c2cc(C3=CCCN(C(=O)c4ccccc4)C3)ccn2)[nH]c1C` [Example 222, (3-(2-(4,5-Dimethyl-1H-imidazol-2-yl)pyridin-4-yl)-5,6-dihydropyridin-1(2H)-yl)(phenyl)methanone trifluoroacetate salt]: above 500 nM and above 500 nM.
The matching figures for `c1ccc(-c2cnc(-c3cc(-c4cnn(CCN5CCOCC5)c4)ccn3)[nH]2)cc1` [Example 26, 4-(2-(4-(2-(5-Phenyl-1H-imidazol-2-yl)pyridin-4-yl)-1H-pyrazol-1-yl)ethyl)morpholine trifluoroacetate salt]: above 500 nM and above 500 nM.
On to `COCCN(C)C(=O)c1cncc(-c2ccnc(-c3nc(C)c(C)[nH]3)c2)c1` [Example 204, 2′-(4,5-Dimethyl-1H-imidazol-2-yl)-N-(2-methoxyethyl)-N-methyl-3,4′-bipyridine-5-carboxamide trifluoroacetate salt], for which the values for the IC50 in test [1] and in test [2] were at most 100 nM and at most 50 nM, respectively.
The matching figures for `NC(=O)Cn1cc(-c2ccnc(-c3ncc(-c4ccccc4)[nH]3)c2)cn1` [Example 48, 2-(4-(2-(5-Phenyl-1H-imidazol-2-yl)pyridin-4-yl)-1H-pyrazol-1-yl)acetamide trifluoroacetate salt]: above 500 nM and above 500 nM.
For `O=C(O)c1ccc(Cn2cc(-c3ccnc(-c4ncc(-c5ccccc5)[nH]4)c3)cn2)cc1` [Example 35, 4-((4-(2-(5-Phenyl-1H-imidazol-2-yl)pyridin-4-yl)-1H-pyrazol-1-yl)methyl)benzoic acid trifluoroacetate salt], in that order: at most 500 nM and at most 500 nM.
Take `Cc1nc(-c2cc(C3=CCN(Cc4ccccc4)C3)ccn2)[nH]c1C` [Example 228, 4-(1-Benzyl-2,5-dihydro-1H-pyrrol-3-yl)-2-(4,5-dimethyl-1H-imidazol-2-yl)pyridine trifluoroacetate salt]: the IC50 in test [1] and in test [2] was above 500 nM throughout.
Turning to `O=C(Nc1cncc(-c2ccnc(-c3ncc(-c4ccccc4)[nH]3)c2)c1)c1ccc(Cl)cc1` [Example 135, 4-Chloro-N-(2′-(5-phenyl-1H-imidazol-2-yl)-3,4′-bipyridin-5-yl)benzamide], the figures for the IC50 in test [1] and in test [2] were above 500 nM and at most 500 nM, respectively.
The matching figures for `O=C(O)CCn1cc(-c2ccnc(-c3ncc(-c4ccccc4)[nH]3)c2)cn1` [Example 57, 3-(4-(2-(5-Phenyl-1H-imidazol-2-yl)pyridin-4-yl)-1H-pyrazol-1-yl)propanoic acid trifluoroacetate salt]: at most 500 nM and at most 100 nM.
The matching figures for `O=C(Nc1cncc(-c2ccnc(-c3ncc(-c4ccccc4)[nH]3)c2)c1)c1ccccc1Cl` [Example 133, 2-Chloro-N-(2′-(5-phenyl-1H-imidazol-2-yl)-3,4′-bipyridin-5-yl)benzamide]: at most 500 nM and at most 100 nM.
For the compound `CC(=O)N1CC=C(c2cncc(-c3ccnc(-c4nc(C)c(C)[nH]4)c3)c2)C1` [Example 238, 1-(3-(2′-(4,5-Dimethyl-1H-imidazol-2-yl)-3,4′-bipyridin-5-yl)-2,5-dihydro-1H-pyrrol-1-yl)ethanone], the IC50 was above 500 nM in test [1] and at most 500 nM in test [2].
In the case of `Cc1nc(-c2cc(-c3cncc(C(=O)N4CCC(Cc5ccccc5)CC4)c3)ccn2)[nH]c1C` [Example 189, 5-[(4-Benzylpiperidin-1-yl)carbonyl]-2′-(4,5-dimethyl-1H-imidazol-2-yl)-3,4′-bipyridine trifluoroacetate salt], the IC50 in test [1] was at most 100 nM; in test [2], at most 50 nM.
For `Cc1nc(-c2cc(-c3cncc(C(=O)N4CCC(c5ccccc5)C4)c3)ccn2)[nH]c1C` (racemic) [Example 181, 2′-(4,5-Dimethyl-1H-imidazol-2-yl)-5-[(3-phenylpyrrolidin-1-yl)carbonyl]-3,4′-bipyridine trifluoroacetate salt], in that order: at most 100 nM and at most 50 nM.
The matching figures for `O=C(O)c1cccc(Cn2cc(-c3ccnc(-c4ncc(-c5ccccc5)[nH]4)c3)cn2)c1` [Example 34, 3-((4-(2-(5-Phenyl-1H-imidazol-2-yl)pyridin-4-yl)-1H-pyrazol-1-yl)methyl)benzoic acid trifluoroacetate salt]: at most 500 nM and at most 500 nM.
For `Cc1[nH]c(-c2cc(-c3cncc(S(C)(=O)=O)c3)ccn2)nc1C(=O)N1CC[C@H](O)C1` [Example 246, (3S)-1-({5-Methyl-2-[5-(methylsulfonyl)-3,4′-bipyridin-2′-yl]-1H-imidazol-4-yl}carbonyl)pyrrolidin-3-ol], in that order: at most 500 nM and at most 500 nM.
`NC(=O)CCn1cc(-c2ccnc(-c3ncc(-c4ccccc4)[nH]3)c2)cn1` [Example 53, 3-(4-(2-(5-Phenyl-1H-imidazol-2-yl)pyridin-4-yl)-1H-pyrazol-1-yl)propanamide]: the IC50 in test [1] and in test [2] was above 500 nM throughout.
Regarding `COc1cncc(-c2ccnc(-c3nnc(C)[nH]3)c2)c1` [Example 73, 5-Methoxy-2′-(5-methyl-4H-1,2,4-triazol-3-yl)-3,4′-bipyridine], the IC50 in test [1] and in test [2] was above 500 nM in each case.
Take `Clc1ccc(Cn2cc(-c3ccnc(-c4nc(C5CCNC5)c[nH]4)c3)cn2)cc1` (racemic) [Example 306, 4-[1-(4-Chlorobenzyl)-1H-pyrazol-4-yl]-2-(4-pyrrolidin-3-yl-1H-imidazol-2-yl)pyridine Trifluoroacetate Salt]: the IC50 in test [1] and in test [2] was above 500 nM throughout.
For the compound `N#Cc1cccc(Cn2cc(-c3ccnc(-c4ncc(-c5ccccc5)[nH]4)c3)cn2)c1` [Example 20, 3-((4-(2-(5-Phenyl-1H-imidazol-2-yl)pyridin-4-yl)-1H-pyrazol-1-yl)methyl)benzonitrile trifluoroacetate salt], the IC50 is at most 500 nM in test [1] and above 500 nM in test [2].
As to `COc1cncc(-c2ccnc(-c3nnc[nH]3)c2)c1` [Example 72, 5-Methoxy-2′-(4H-1,2,4-triazol-3-yl)-3,4′-bipyridine], the IC50 in test [1] and in test [2] was above 500 nM each time.
For the compound `Cc1nc(-c2cc(-c3cncc(C(=O)NCC4CCCO4)c3)ccn2)[nH]c1C` (racemic) [Example 167, 2′-(4,5-Dimethyl-1H-imidazol-2-yl)-N-((tetrahydrofuran-2-yl)methyl)-3,4′-bipyridine-5-carboxamide trifluoroacetate salt], the IC50 in test [1] was at most 100 nM; in test [2], at most 500 nM.
For `Cc1nc(-c2cc(-c3cncc(C(=O)N4CCOCC4)c3)ccn2)[nH]c1C` [Example 148, (2′-(4,5-Dimethyl-1H-imidazol-2-yl)-3,4′-bipyridin-5-yl)(morpholino)methanone], in that order: at most 100 nM and at most 500 nM.
